The text below walks through data of the supplement of paper PMC4862054.

What all share (experiment): normalised viability (% of control), CellTiter-Blue; higher = more viable cells (about 100 = DMSO control)
What all share (settings): incubation time: 72 h
(In general: Alamar Blue is a resazurin reagent that responds to reducing activity.)

For one assay, the system named is CAL-148. On the procedure:
(§1)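 DSRT, CellTiter-Blue viability, 72 h incubation. Signal is normalised to DMSO and benzethonium chloride controls. Value is the normalised response at dose 7.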

In the next assay the test system is CAL-85-1. On the procedure:
as §1

In a further assay the test system is DU-4475. On the procedure:
as §1

Another assay deals with MDA-MB-453. On the procedure:
as §1

For another assay, the system named is HDQ-P1. On the procedure: as §1
The subject of the next assay is CAL-51. On the procedure: as §1

Regarding `COc1cccc2c1C(=O)c1c(O)c3c(c(O)c1C2=O)C[C@@](O)(C(=O)CO)C[C@@H]3O[C@H]1C[C@H](N)[C@H](O)[C@H](C)O1` [Doxorubicin] (100 nM), the normalised viability in the assay with CAL-148 was 39.1%; in the assay with CAL-85-1 it was 77.5%; in the assay with DU-4475, 59.1%; with MDA-MB-453, 98.8%; in the assay with HDQ-P1, 70.9%; in the assay on CAL-51, 66.1%.
For `CN(C)C/C=C/C(=O)Nc1cc2c(Nc3ccc(F)c(Cl)c3)ncnc2cc1O[C@H]1CCOC1` [Afatinib] (1000 nM), the normalised viability in the assay on CAL-148 was determined as 73.7%; with CAL-85-1, 48.6%; with DU-4475, 87.7%; with MDA-MB-453, 27.5%; in the assay with HDQ-P1 it was 49.8%; with CAL-51, 99.7%.
For the compound `N#CC[C@H](C1CCCC1)n1cc(-c2ncnc3[nH]ccc23)cn1` [Ruxolitinib] (1000 nM), the normalised viability worked out at 101% with CAL-148; 110% in the assay on CAL-85-1; 112% with DU-4475; 92.4% in the assay on MDA-MB-453; 91.1% in the assay on HDQ-P1; 90% with CAL-51.
As to `OC[C@H]1O[C@@H](n2cnc3c2N=CNC[C@H]3O)C[C@@H]1O` [Pentostatin] (1000 nM), the normalised viability came to 123% in the assay on CAL-148; 108% in the assay on CAL-85-1; 102% with DU-4475; 98.2% in the assay with MDA-MB-453; 85.4% with HDQ-P1; 89.9% with CAL-51.
For `CC[C@]1(O)C[C@@H]2CN(CCc3c([nH]c4ccccc34)[C@@](C(=O)OC)(c3cc4c(cc3OC)N(C)[C@H]3[C@@](O)(C(=O)OC)[C@H](OC(C)=O)[C@]5(CC)C=CCN6CC[C@]43[C@@H]65)C2)C1` [Vinblastine] (100 nM), the normalised viability in the assay with CAL-148 was determined as 20.1%; in the assay on CAL-85-1 it was 30.2%; with DU-4475, 34.8%; in the assay on MDA-MB-453, 23.8%; with HDQ-P1, 37.6%; in the assay on CAL-51 it was 23.3%.
Regarding `Nc1nc(Cl)nc2c1ncn2[C@H]1C[C@H](O)[C@@H](CO)O1` [Cladribine] (100 nM), the normalised viability in the assay with CAL-148 was 96.9%; in the assay with CAL-85-1, 84.2%; in the assay on DU-4475, 81%; in the assay with MDA-MB-453, 98.4%; in the assay with HDQ-P1 it was 95.5%; with CAL-51, 111%.
`C[C@]1(c2nc3c(C(N)=O)cccc3[nH]2)CCCN1` [Veliparib] (1000 nM): the normalised viability came to 106% in the assay on CAL-148; 73.3% with CAL-85-1; 82.1% with DU-4475; 84.4% with MDA-MB-453; 97.1% with HDQ-P1; 107% in the assay with CAL-51.
In the case of `CO[C@H]1C[C@@H]2CC[C@@H](C)[C@@](O)(O2)C(=O)C(=O)N2CCCC[C@H]2C(=O)O[C@H]([C@H](C)C[C@@H]2CC[C@@H](OC(=O)C(C)(CO)CO)[C@H](OC)C2)CC(=O)[C@H](C)/C=C(\C)[C@@H](O)[C@@H](OC)C(=O)[C@H](C)C[C@H](C)/C=C/C=C/C=C/1C` [Temsirolimus] (100 nM), the normalised viability in the assay with CAL-148 was 37%; with CAL-85-1, 53.2%; in the assay with DU-4475 it was 50.6%; in the assay with MDA-MB-453, 24.9%; in the assay with HDQ-P1, 71.8%; with CAL-51, 37.9%.
Take `Cc1ccc(F)c(NC(=O)Nc2ccc(-c3cccc4[nH]nc(N)c34)cc2)c1` [Linifanib] (100 nM): the normalised viability was found to be 103% in the assay on CAL-148; 87.4% with CAL-85-1; 103% in the assay with DU-4475; 100% with MDA-MB-453; 113% in the assay with HDQ-P1; 108% in the assay on CAL-51.
Consider `CS(=O)(=O)c1ccc(C(=O)Nc2ccc(Cl)c(-c3ccccn3)c2)c(Cl)c1` [Vismodegib] (1000 nM), for which the normalised viability stood at 98.3% in the assay with CAL-148; 97.1% with CAL-85-1; 114% in the assay with DU-4475; 98.3% with MDA-MB-453; 92.4% with HDQ-P1; 99.1% in the assay on CAL-51.
As for `S=c1[nH]cnc2nc[nH]c12` [Mercaptopurine] (1000 nM), the normalised viability turned out to be 100% with CAL-148; 78.4% in the assay with CAL-85-1; 90.6% in the assay on DU-4475; 110% with MDA-MB-453; 90.3% in the assay with HDQ-P1; 101% in the assay with CAL-51.
With `CN1CCC(COc2cnc(-c3cccc(Cn4nc(-c5cccc(C#N)c5)ccc4=O)c3)nc2)CC1` (1000 nM), the normalised viability with CAL-148 came to 90.4%; with CAL-85-1, 98.6%; with DU-4475, 97.2%; in the assay with MDA-MB-453 it was 90.8%; in the assay on HDQ-P1, 95%; in the assay on CAL-51, 99.2%.
For `C=CC[C@@H]1/C=C(\C)C[C@H](C)C[C@H](OC)[C@H]2O[C@@](O)(C(=O)C(=O)N3CCCC[C@H]3C(=O)O[C@H](/C(C)=C/[C@@H]3CC[C@@H](O)[C@H](OC)C3)[C@H](C)[C@@H](O)CC1=O)[C@H](C)C[C@@H]2OC` [Tacrolimus] (1000 nM), the normalised viability in the assay on CAL-148 is 103%; with CAL-85-1, 95.4%; with DU-4475 it was 115%; in the assay on MDA-MB-453 it was 108%; in the assay with HDQ-P1, 111%; with CAL-51 it was 96.6%.
As for `C=CCNC1=C2C[C@@H](C)C[C@H](OC)[C@H](O)[C@@H](C)/C=C(\C)[C@H](OC(N)=O)[C@@H](OC)/C=C\C=C(/C)C(=O)NC(=CC1=O)C2=O` [Tanespimycin] (1000 nM), the normalised viability in the assay on CAL-148 is 20.8%; in the assay with CAL-85-1, 24.7%; with DU-4475, 0.99%; with MDA-MB-453, 7.14%; in the assay with HDQ-P1, 22.9%; in the assay on CAL-51 it was 24.2%.
For `Clc1ccc(C(c2ccccc2Cl)C(Cl)Cl)cc1` (centres undefined) [Mitotane] (1000 nM), the normalised viability in the assay with CAL-148 turned out to be 108%; in the assay on CAL-85-1, 83.2%; in the assay on DU-4475, 87.9%; in the assay with MDA-MB-453 it was 97.5%; in the assay on HDQ-P1, 104%; in the assay with CAL-51 it was 105%.
As for `Nc1ccn([C@@H]2O[C@H](CO)[C@@H](O)[C@@H]2O)c(=O)n1` [Cytarabine] (1000 nM), the normalised viability was 44.6% in the assay on CAL-148; 88.5% with CAL-85-1; 39.7% in the assay on DU-4475; 62.4% in the assay on MDA-MB-453; 82.2% with HDQ-P1; 29.8% in the assay with CAL-51.
For the compound `COc1cccc2cc(-c3nc([C@H]4CC[C@H](C(=O)O)CC4)n4ncnc(N)c34)[nH]c12` [OSI-027] (1000 nM), the normalised viability in the assay with CAL-148 turned out to be 65.1%; in the assay with CAL-85-1, 61%; in the assay on DU-4475 it was 68.1%; in the assay with MDA-MB-453, 37.5%; in the assay with HDQ-P1, 39.3%; in the assay on CAL-51, 61.8%.
As for `CN1CC[C@H](c2c(O)cc(O)c3c(=O)cc(-c4ccccc4Cl)oc23)[C@H](O)C1` [Alvocidib] (1000 nM), the normalised viability in the assay with CAL-148 came to 10.3%; in the assay on CAL-85-1, 1.95%; in the assay on DU-4475, 3.18%; with MDA-MB-453 it was 9.17%; in the assay on HDQ-P1, 10.8%; in the assay on CAL-51 it was 4.57%.
With `Cc1c2oc3c(C)ccc(C(=O)N[C@@H]4C(=O)N[C@H](C(C)C)C(=O)N5CCC[C@H]5C(=O)N(C)CC(=O)N(C)[C@@H](C(C)C)C(=O)O[C@@H]4C)c3nc-2c(C(=O)N[C@@H]2C(=O)N[C@H](C(C)C)C(=O)N3CCC[C@H]3C(=O)N(C)CC(=O)N(C)[C@@H](C(C)C)C(=O)O[C@@H]2C)c(N)c1=O` [Dactinomycin] (100 nM), the normalised viability with CAL-148 came to 7.49%; in the assay on CAL-85-1 it was 3.46%; with DU-4475 it was 0.64%; with MDA-MB-453, 4.93%; with HDQ-P1 it was 12.9%; in the assay on CAL-51, 2.49%.
